Measured values as given in ChEMBL document CHEMBL4130491, “Baicalin and its metabolites suppresses gluconeogenesis through activation of AMPK or AKT in insulin resistant HepG-2 cells” (Eur J Med Chem, 2017).
The source made the active and inactive calls. No cut-off for these calls is given here.

Columns and labels:
[1] = biological target: RAC-alpha serine/threonine-protein kinase (Homo sapiens) (UniProt P31749); test: Activation of AKT in palmitate-induced insulin-resistant human HepG2 cells assessed as reduction in GLUT2 mRNA expression at 12.5 uM incubated for 24 hrs after 1 hr pre-incubation of cells with 0.5 uM AKT inhibitor […] by real-time PCR method; assay type: cell-based
HepG2 [2] = test: Cytotoxicity in human HepG2 cells assessed as reduction in cell viability up to 12.5 uM incubated for 24 hrs by MTT assay; assay type: cell-based; conditions: hepg2, 24 h
HepG2 [3] = test: Cytotoxicity in palmitate-induced insulin-resistant human HepG2 cells assessed as reduction in cell viability at 12.5 uM incubated for 24 hrs by MTT assay; assay type: cell-based; conditions: hepg2, 24 h
HepG2 [4] = test: Stimulation of glucose consumption in palmitate-induced insulin-resistant human HepG2 cells at 12.5 uM incubated for 24 hrs by glucose oxidase based assay; assay type: functional, cell-based
[5] = biological target: RAC-alpha serine/threonine-protein kinase (Homo sapiens) (UniProt P31749); test: Activation of AKT in palmitate-induced insulin-resistant human HepG2 cells assessed as reduction in GLUT2 mRNA expression at 12.5 uM incubated for 24 hrs after 1 hr pre-incubation of cells with 10 uM AMPK inhibitor compound C by real-time PCR method; assay type: cell-based
[6] = biological target: RAC-alpha serine/threonine-protein kinase (Homo sapiens) (UniProt P31749); test: Activation of AKT in palmitate-induced insulin-resistant human HepG2 cells assessed as reduction in G6Pase mRNA expression at 12.5 uM incubated for 24 hrs after 1 hr pre-incubation of cells with 0.5 uM AKT inhibitor […] by real-time PCR method; assay type: cell-based
[7] = biological target: RAC-alpha serine/threonine-protein kinase (Homo sapiens) (UniProt P31749); test: Activation of AKT in palmitate-induced insulin-resistant human HepG2 cells assessed as reduction in PEPCK mRNA expression at 12.5 uM incubated for 24 hrs after 1 hr pre-incubation of cells with 0.5 uM AKT inhibitor […] by real-time PCR method; assay type: cell-based
[8] = biological target: RAC-alpha serine/threonine-protein kinase (Homo sapiens) (UniProt P31749); test: Activation of AKT in palmitate-induced insulin-resistant human HepG2 cells assessed as increase in AKT phosphorylation at 12.5 uM incubated for 24 hrs by Western blot method; assay type: cell-based
[9] = biological target: T1, AMP-activated protein kinase, AMPK (Homo sapiens) (UniProt P54646+O43741+P54619+Q9UGJ0+Q9Y478+Q13131+Q9UGI9); test: Activation of AMPK in palmitate-induced insulin-resistant human HepG2 cells assessed as reduction in GLUT2 mRNA expression at 12.5 uM incubated for 24 hrs by real-time PCR method; assay type: cell-based
[10] = biological target: T1, AMP-activated protein kinase, AMPK (Homo sapiens); test: Activation of AMPK in palmitate-induced insulin-resistant human HepG2 cells assessed as increase in AMPK phosphorylation at 12.5 uM incubated for 24 hrs by Western blot method; assay type: cell-based
[11] = biological target: T1, AMP-activated protein kinase, AMPK (Homo sapiens); test: Activation of AMPK in palmitate-induced insulin-resistant human HepG2 cells assessed as reduction in PEPCK mRNA expression at 12.5 uM incubated for 24 hrs by real-time PCR method; assay type: cell-based
[12] = biological target: T1, AMP-activated protein kinase, AMPK (Homo sapiens); test: Activation of AMPK in palmitate-induced insulin-resistant human HepG2 cells assessed as reduction in G6Pase mRNA expression at 12.5 uM incubated for 24 hrs by real-time PCR method; assay type: cell-based
[13] = biological target: RAC-alpha serine/threonine-protein kinase (Homo sapiens) (UniProt P31749); test: Activation of AKT in palmitate-induced insulin-resistant human HepG2 cells assessed as reduction in PEPCK mRNA expression at 12.5 uM incubated for 24 hrs after 1 hr pre-incubation of cells with 10 uM AMPK inhibitor compound C by real-time PCR method; assay type: cell-based
[14] = biological target: RAC-alpha serine/threonine-protein kinase (Homo sapiens) (UniProt P31749); test: Activation of AKT in palmitate-induced insulin-resistant human HepG2 cells assessed as reduction in G6Pase mRNA expression at 12.5 uM incubated for 24 hrs after 1 hr pre-incubation of cells with 10 uM AMPK inhibitor compound C by real-time PCR method; assay type: cell-based
[15] = biological target: T1, AMP-activated protein kinase, AMPK (Homo sapiens); test: Activation of AMPK in palmitate-induced insulin-resistant human HepG2 cells assessed as reduction in PEPCK mRNA expression at 12.5 uM incubated for 24 hrs after 1 hr pre-incubation of cells with 10 uM AMPK inhibitor compound C by real-time PCR method; assay type: cell-based
[16] = biological target: T1, AMP-activated protein kinase, AMPK (Homo sapiens); test: Activation of AMPK in palmitate-induced insulin-resistant human HepG2 cells assessed as reduction in GLUT2 mRNA expression at 12.5 uM incubated for 24 hrs after 1 hr pre-incubation of cells with 10 uM AMPK inhibitor compound C by real-time PCR method; assay type: cell-based
[17] = biological target: T1, AMP-activated protein kinase, AMPK (Homo sapiens); test: Activation of AMPK in palmitate-induced insulin-resistant human HepG2 cells assessed as reduction in G6Pase mRNA expression at 12.5 uM incubated for 24 hrs after 1 hr pre-incubation of cells with 10 uM AMPK inhibitor compound C by real-time PCR method; assay type: cell-based
[18] = Cytotoxicity in human HepG2 cells assessed as cell viability at 50 uM incubated for 24 hrs by MTT assay; assay type: cell-based; conditions: read-out: Activity
HepG2 [19] = test: Cytotoxicity in human HepG2 cells assessed as reduction in cell viability at 3.125 to 50 uM incubated for 24 hrs by MTT assay; assay type: cell-based; conditions: hepg2, 24 h
[20] = Cytotoxicity in human HepG2 cells assessed as cell viability at 25 uM incubated for 24 hrs by MTT assay; assay type: cell-based; conditions: read-out: Activity
HepG2 [21] = test: Stimulation of glucose consumption in palmitate-induced insulin-resistant human HepG2 cells at 12.5 uM incubated for 24 hrs by glucose oxidase based assay relative to palmitate; assay type: functional

RAC-alpha serine/threonine-protein kinase (Homo sapiens), sequence (P31749 whole entry): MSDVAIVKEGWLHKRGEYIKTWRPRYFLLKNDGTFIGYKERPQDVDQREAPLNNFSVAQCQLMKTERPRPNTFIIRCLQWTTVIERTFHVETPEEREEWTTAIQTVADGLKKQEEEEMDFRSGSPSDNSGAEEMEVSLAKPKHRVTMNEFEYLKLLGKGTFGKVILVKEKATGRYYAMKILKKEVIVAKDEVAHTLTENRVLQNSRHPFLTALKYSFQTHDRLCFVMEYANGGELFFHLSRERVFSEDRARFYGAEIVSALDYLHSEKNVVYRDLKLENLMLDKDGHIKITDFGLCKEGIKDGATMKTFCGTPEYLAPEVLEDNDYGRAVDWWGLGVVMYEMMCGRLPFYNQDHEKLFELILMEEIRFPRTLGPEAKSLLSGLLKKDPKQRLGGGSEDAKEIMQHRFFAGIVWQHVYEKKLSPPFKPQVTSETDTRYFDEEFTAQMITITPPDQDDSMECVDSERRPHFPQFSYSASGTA

Compound	Activity [1]	Activity (HepG2 [2])	Activity (HepG2 [3])	Activity (HepG2 [4])	Activity [8]	Activity [9]	Activity [10]	Activity [11]	Activity [12]	Activity [15]	Activity [16]	other results
COc1c(O[C@@H]2O[C@H](C(=O)O)[C@@H](O)[C@H](O)[C@H]2O)cc2oc(-c3ccccc3)cc(=O)c2c1O	Active	Non-Toxic	Non-Toxic	inactive								
O=C(O)[C@H]1O[C@@H](Oc2cc3oc(-c4ccccc4)cc(=O)c3c(O)c2O[C@@H]2O[C@H](CO)[C@@H](O)[C@H](O)[C@H]2O)[C@H](O)[C@@H](O)[C@@H]1O	Active	Non-Toxic	Non-Toxic	Active	Active	Active	Active	Active	Active			Activity [5]: Active; Activity [6]: inactive; Activity [7]: inactive; Activity [13]: Active; Activity [14]: Active
O=c1cc(-c2ccccc2)oc2cc(O)c(O)c(O)c12 [BAICALEIN]	Active	Non-Toxic	Non-Toxic	Active	Active	Active	Active	Active	Active	inactive	inactive	Activity [17]: inactive
O=C(O)[C@H]1O[C@@H](Oc2cc3oc(-c4ccccc4)cc(=O)c3c(O)c2O)[C@H](O)[C@@H](O)[C@@H]1O [BAICALIN]			Non-Toxic	Active		Active	Active	Active	Active	inactive	inactive	viability at 24 h, 50 µM [18]: 85%; Activity (HepG2 [19]): Non-Toxic; viability at 24 h, 25 µM [20]: 85%
CN(CCOc1ccc(CC2SC(=O)NC2=O)cc1)c1ccccn1 (configuration not stated) [ROSIGLITAZONE]				Active		Active	Active	Active	Active			Activity (HepG2 [21]): 7%
